# Laboratory results: patent US10865208B2, “ATG7 inhibitors and the uses thereof” (Millennium Pharmaceuticals, Inc., priority 2016, dated 2020)
# Molecular target: recombinant human His-ATG7 enzyme (Homo sapiens (Human), UniProt O95352)
# Test: ATG7 Enzyme Assay (HTRF/FRET, ATG3-GST and Flag-Gabarap)
# Type: biochemical
# Conditions: for inhibition at 0.123 µM: Concentration 0.123 μM; for inhibition at 0.123 µM / inhibition at 0.111 µM / inhibition at 0.069 µM: read-out: Percent Inhibition; for inhibition at 0.111 µM: Concentration 0.111 μM; for inhibition at 0.069 µM: Concentration 0.069 μM
# Summary of the method: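 HTRF read-out after 2 h at 24° C, using Eu-cryptate anti-Flag and XL-APC anti-GST antibodies in an EDTA stop buffer. The preceding 105 min, 24° C reaction (pH 7.5) held 10 μM ATP, 5 nM each ATG3-GST and Flag-Gabarap, and 0.15 nM human His-ATG7. Values are IC50 or percent inhibition at one concentration.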
# Sequence of recombinant human His-ATG7 enzyme (O95352 whole entry): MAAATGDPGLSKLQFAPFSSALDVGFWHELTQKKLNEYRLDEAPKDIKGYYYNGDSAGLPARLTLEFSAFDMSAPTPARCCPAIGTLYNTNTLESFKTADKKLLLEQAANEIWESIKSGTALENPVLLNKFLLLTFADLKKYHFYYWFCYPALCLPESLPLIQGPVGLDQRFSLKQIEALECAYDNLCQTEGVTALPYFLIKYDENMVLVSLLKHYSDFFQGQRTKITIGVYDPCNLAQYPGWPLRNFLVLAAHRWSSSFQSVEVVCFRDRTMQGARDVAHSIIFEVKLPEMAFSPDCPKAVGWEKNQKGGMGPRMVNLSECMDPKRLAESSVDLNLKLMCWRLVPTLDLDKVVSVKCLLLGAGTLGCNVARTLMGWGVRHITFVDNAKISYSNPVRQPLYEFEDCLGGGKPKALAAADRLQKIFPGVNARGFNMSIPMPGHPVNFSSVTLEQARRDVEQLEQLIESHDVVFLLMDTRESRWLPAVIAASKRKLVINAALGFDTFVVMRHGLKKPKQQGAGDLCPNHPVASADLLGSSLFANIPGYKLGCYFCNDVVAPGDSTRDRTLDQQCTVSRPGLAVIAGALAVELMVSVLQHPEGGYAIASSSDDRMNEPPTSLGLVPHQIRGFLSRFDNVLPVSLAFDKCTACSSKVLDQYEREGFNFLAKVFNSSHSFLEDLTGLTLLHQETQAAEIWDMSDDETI
Compound,IC50 [µM],inhibition at 0.123 µM [%],inhibition at 0.111 µM [%],inhibition at 0.069 µM [%]
"Nc1ncnc2c1c(Sc1ccc3c(c1)CCC3)nn2[C@H]1C[C@H](O)[C@@H](COS(N)(=O)=O)O1 [Compound I-160, {(2R,3S,5R)-5-[4-amino-3-(2,3-dihydro-1H-inden-5-ylsulfanyl)-1H-pyrazolo[3,4-d]pyrimidin-1-yl]-3-hydroxytetrahydrofuran-2-yl}methyl Sulfamate]",0.05 to 0.1,,62,
"C#Cc1nn([C@@H]2O[C@H](COS(N)(=O)=O)[C@@H](O)[C@H]2O)c2ncnc(N)c12 [Compound I-9, [(2R,3S,4R,5R)-5-(4-amino-3-ethynyl-1H-pyrazolo[3,4-d]pyrimidin-1-yl)-3,4-dihydroxytetrahydrofuran-2-yl]methyl Sulfamate]",0.05 to 0.1,,,52
"Nc1ncnc2c1c(-c1ccn[nH]1)nn2[C@@H]1O[C@H](COS(N)(=O)=O)[C@@H](O)[C@H]1O [Compound I-68, {(2R,3S,4R,5R)-5-[4-amino-3-(1H-pyrazol-5-yl)-1H-pyrazolo[3,4-d]pyrimidin-1-yl]-3,4-dihydroxytetrahydrofuran-2-yl}methyl sulfamate]",> 0.5,10,,
"Nc1ncnc2c1c(Sc1ccc(C(F)(F)F)cc1)nn2[C@@H]1O[C@H](COS(N)(=O)=O)[C@@H](O)[C@@H]1F [Compound I-132, [(2R,3R,4S,5R)-5-(4-amino-3-{[4-(trifluoromethyl)phenyl]sulfanyl}-1H-pyrazolo[3,4-d]pyrimidin-1-yl)-4-fluoro-3-hydroxytetrahydrofuran-2-yl]methyl sulfamate]",0.05 to 0.1,,60,
"COCCSc1nn([C@@H]2O[C@H](COS(N)(=O)=O)[C@@H](O)[C@H]2O)c2ncnc(N)c12 [Compound I-35, [(2R,3S,4R,5R)-5-{4-amino-3-[(2-methoxyethyl)sulfanyl]-1H-pyrazolo[3,4-d]pyrimidin-1-yl}-3,4-dihydroxytetrahydrofuran-2-yl]methyl sulfamate]",0.02 to 0.05,72,,
"CC(O)c1nn([C@@H]2O[C@H](COS(N)(=O)=O)[C@@H](O)[C@H]2O)c2ncnc(N)c12 (single isomer, unassigned) [Compound I-23b, [(2R,3S,4R,5R)-5-{4-amino-3-[(1R)-1-hydroxyethyl]-1H-pyrazolo[3,4-d]pyrimidin-1-yl}-3,4-dihydroxytetrahydrofuran-2-yl]methyl Sulfamate or [(2R,3S,4R,5R)-5-{4-amino-3-[(1S)-1-hydroxyethyl]-1H-pyrazolo[3,4-d]pyrimidin-1-yl}-3,4-dihydroxytetrahydrofuran-2-yl]methyl Sulfamate]",0.1 to 0.5,22,,
"Nc1ncnc2c1c(SCC1CC1)nn2[C@@H]1O[C@H](COS(N)(=O)=O)[C@@H](O)[C@H]1O [Compound I-50, [(2R,3S,4R,5R)-5-{4-amino-3-[(cyclopropylmethyl)sulfanyl]-1H-pyrazolo[3,4-d]pyrimidin-1-yl}-3,4-dihydroxytetrahydrofuran-2-yl]methyl sulfamate]",< 0.02,,88,
"Nc1ncnc2c1c(CCc1ccccc1)nn2[C@@H]1O[C@H](COS(N)(=O)=O)[C@@H](O)[C@H]1O [Compound I-12, {(2R,3S,4R,5R)-5-[4-amino-3-(2-phenylethyl)-1H-pyrazolo[3,4-d]pyrimidin-1-yl]-3,4-dihydroxytetrahydrofuran-2-yl}methyl Sulfamate]",0.1 to 0.5,20,,
"Nc1ncnc2c1c(SC1CC1)nn2[C@H]1C[C@H](O)[C@@H](COS(N)(=O)=O)O1 [Compound I-167, {(2R,3S,5R)-5-[4-amino-3-(cyclopropylsulfanyl)-1H-pyrazolo[3,4-d]pyrimidin-1-yl]-3-hydroxytetrahydrofuran-2-yl}methyl sulfamate]",0.05 to 0.1,,68,
"COc1ccc(CSc2nn([C@@H]3O[C@H](COS(N)(=O)=O)[C@@H](O)[C@H]3O)c3ncnc(N)c23)cc1 [Compound I-38, [(2R,3S,4R,5R)-5-{4-amino-3-[(4-methoxybenzyl)sulfanyl]-1H-pyrazolo[3,4-d]pyrimidin-1-yl}-3,4-dihydroxytetrahydrofuran-2-yl]methyl sulfamate]",0.02 to 0.05,84,,
"Cn1cnc(Sc2nn([C@@H]3O[C@H](COS(N)(=O)=O)[C@@H](O)[C@@H]3F)c3ncnc(N)c23)c1 [Compound I-137, [(2R,3R,4S,5R)-5-{4-amino-3-[(1-methyl-1H-imidazol-4-yl)sulfanyl]-1H-pyrazolo[3,4-d]pyrimidin-1-yl}-4-fluoro-3-hydroxytetrahydrofuran-2-yl]methyl sulfamate]",0.02 to 0.05,,80,
"Nc1ncnc2c1c(Sc1cccc(Cl)c1)nn2[C@@H]1O[C@H](COS(N)(=O)=O)[C@@H](O)[C@@H]1F [Compound I-106, [(2R,3R,4S,5R)-5-{4-amino-3-[(3-chlorophenyl)sulfanyl]-1H-pyrazolo[3,4-d]pyrimidin-1-yl}-4-fluoro-3-hydroxytetrahydrofuran-2-yl]methyl Sulfamate]",0.02 to 0.05,78,,

# Further lines, results first:
IC50 [µM],inhibition at 0.123 µM [%],inhibition at 0.111 µM [%],inhibition at 0.069 µM [%],Compound
0.02 to 0.05,73,,,"Nc1ncnc2c1c(SCc1ccc(OC(F)(F)F)cc1)nn2[C@@H]1O[C@H](COS(N)(=O)=O)[C@@H](O)[C@H]1O [Compound I-32, [(2R,3S,4R,5R)-5-(4-amino-3-{[4-(trifluoromethoxy)benzyl]sulfanyl}-1H-pyrazolo[3,4-d]pyrimidin-1-yl)-3,4-dihydroxytetrahydrofuran-2-yl]methyl sulfamate]"
0.05 to 0.1,71,,,"CC(C)(O)CSc1nn([C@@H]2O[C@H](COS(N)(=O)=O)[C@@H](O)[C@H]2O)c2ncnc(N)c12 [Compound I-28, [(2R,3S,4R,5R)-5-{4-amino-3-[(2-hydroxy-2-methylpropyl)sulfanyl]-1H-pyrazolo[3,4-d]pyrimidin-1-yl}-3,4-dihydroxytetrahydrofuran-2-yl]methyl sulfamate]"
< 0.02,,79,,"CSc1nn([C@@H]2O[C@H](COS(N)(=O)=O)[C@@H](O)[C@H]2O)c2ncnc(N)c12 [Compound I-42, {(2R,3S,4R,5R)-5-[4-amino-3-(methylsulfanyl)-1H-pyrazolo[3,4-d]pyrimidin-1-yl]-3,4-dihydroxytetrahydrofuran-2-yl}methyl Sulfamate]"
0.02 to 0.05,,83,,"Nc1ncnc2c1c(Sc1cc(C(F)(F)F)ccn1)nn2[C@@H]1O[C@H](COS(N)(=O)=O)[C@@H](O)[C@@H]1F [Compound I-117, [(2R,3R,4S,5R)-5-(4-amino-3-{[4-(trifluoromethyl)pyridin-2-yl]sulfanyl}-1H-pyrazolo[3,4-d]pyrimidin-1-yl)-4-fluoro-3-hydroxytetrahydrofuran-2-yl]methyl sulfamate]"
0.05 to 0.1,70,,,"CC(Sc1nn([C@@H]2O[C@H](COS(N)(=O)=O)[C@@H](O)[C@H]2O)c2ncnc(N)c12)c1ccccc1 (mixture of isomers) [Compound I-70, [(2R,3S,4R,5R)-5-(4-amino-3-{[(1R)-1-phenylethyl]sulfanyl}-1H-pyrazolo[3,4-d]pyrimidin-1-yl)-3,4-dihydroxytetrahydrofuran-2-yl]methyl sulfamate and [(2R,3S,4R,5R)-5-(4-amino-3-{[(1S)-1-phenylethyl]sulfanyl}-1H-pyrazolo[3,4-d]pyrimidin-1-yl)-3,4-dihydroxytetrahydrofuran-2-yl]methyl sulfamate]"
> 0.5,,,7,"Nc1ncnc2c1c(Oc1ccccc1)nn2[C@@H]1O[C@H](COS(N)(=O)=O)[C@@H](O)[C@H]1O [Compound I-37, [(2R,3S,4R,5R)-5-(4-amino-3-phenoxy-1H-pyrazolo[3,4-d]pyrimidin-1-yl)-3,4-dihydroxytetrahydrofuran-2-yl]methyl sulfamate]"
0.05 to 0.1,,52,,"Nc1ncnc2c1c(SCc1ccnnc1)nn2[C@@H]1O[C@H](COS(N)(=O)=O)[C@@H](O)[C@@H]1F [Compound I-128, [(2R,3R,4S,5R)-5-{4-amino-3-[(pyridazin-4-ylmethyl)sulfanyl]-1H-pyrazolo[3,4-d]pyrimidin-1-yl}-4-fluoro-3-hydroxytetrahydrofuran-2-yl]methyl sulfamate]"
0.02 to 0.05,,70,,"Nc1ncnc2c1c(OC(F)F)nn2[C@@H]1O[C@H](COS(N)(=O)=O)[C@@H](O)[C@@H]1F [Compound I-99, {(2R,3R,4S,5R)-5-[4-amino-3-(difluoromethoxy)-1H-pyrazolo[3,4-d]pyrimidin-1-yl]-4-fluoro-3-hydroxytetrahydrofuran-2-yl}methyl Sulfamate]"
> 0.5,15,,,"Nc1ncnc2c1c(-c1nccs1)nn2[C@@H]1O[C@H](COS(N)(=O)=O)[C@@H](O)[C@H]1O [Compound I-30, {(2R,3S,4R,5R)-5-[4-amino-3-(1,3-thiazol-2-yl)-1H-pyrazolo[3,4-d]pyrimidin-1-yl]-3,4-dihydroxytetrahydrofuran-2-yl}methyl sulfamate]"
